Data on one compound can be found in patent publication US20080051351A1, “Substances, Compositions, and Methods for Treating Alopecia” (priority 2005, published 2008).

The assay has as its system testosterone 5α-reductase. As to the kind of experiment: Testosterone 5α-reductase micro radioassay (crude nuclear fraction of ventral prostate). In kind it is biochemical. The conditions noted are these: 0.1 mg/ml 17-alpha-estradiol, with or without 20 μg/ml UL-OHA; 37° C., 1 hour. Here is the method: The effect of UL-OHA on inhibiting increase in testosterone 5α-reductase activity can be verified with a micro radioassay.
Biopsies of ventral prostate homogenized with 9 volumes of 0.1 M PBS are filtered through gauze and centrifuged at 3000 rpm for 10 minutes to obtain a crude nuclear fraction. The supernatant is discarded and the pellet resuspended in PBS. This process is repeated once again and the second suspension is used as enzyme solution for the assay.
1 mCi of [4-^14C] testosterone with 17-alpha-estradiol+UL-OHA (calculated for a final conc. of 0.1 mg/ml and 20 μg/ml respectively) and 17-alpha-estradiol (final conc. 0.1 mg/ml) are placed in test tubes and heated to dryness under nitrogen flow. 10 μl of 50 mM NADPH, 60 μl of PBS and 30 μl of testosterone 5α-reductase solution are added and the test tubes and incubated at 37° C. for 1 hour. Finally 0.4 ml of chloroform:methanol (1:2 v/v) are added in order to terminate the reaction and the mixture is centrifuged at 3000 rpm for 10 minutes. […]
The radioactive activity of each extract based on the resulting quantity of testosterone, 5α-dihydro-testosterone, 5α-androstan-3α,17β-diol and 5α-androstan-3β,17β-diol is measured by reading the intensity of isotope emission from the plates as described by Hamada K et al. (IFSCC Magazine 4(2):83-87, 2001). […]

As for `C[C@]12CC[C@@H]3c4ccc(O)cc4CC[C@H]3[C@@H]1CC[C@H]2O` [17-alpha-estradiol], the “Percentage inhibition of testosterone conversion relative to the control (anti-androgenic activity)” value amounted to 20%.
